Key:
[1] = system: CD44+CD62L- CD8+ T cells; assay: ICS, peptide-immunized Ifnar-/- HLA-B*0702 mice challenged with ZIKV; type: cell-based, mouse; conditions: mice immunized with the 4 ZIKV/DENV cross-reactive peptides, day 3 after ZIKV challenge
Description: Two HLA-B*0702-binding ZIKV-specific peptides (FSS-NS2A133-141(SEQ ID NO: 41) and FSS/MR766-NS2B68-75 (SEQ ID NO: 45)) and four ZIKV/DENV cross-reactive peptides (FSS/MR766-NS4B426-435 (SEQ ID NO: 60), FSS/MR766-NS2A75-84 (SEQ ID NO: 39), FSS/MR766-NS3206-215 (SEQ ID NO: 47), and FSS/MR766-NS3574-582 (SEQ ID NO: 52)) were chosen for synthesis. Five HLA-A*0101-binding peptides (FSS/MR-E159-167 (SEQ ID NO: 70), FSS/MR-E195-203 (SEQ ID NO: 71), FSS/MR-NS123-31 (SEQ ID NO: 74), FSS/MR-NS4B231-239 (SEQ ID NO: 77), and FSS/MR-NS5509-517 (SEQ ID NO: 79)) were chosen for synthesis. Mice (both female and male; 5-6 weeks of age) were immunized subcutaneously with a mixture of HCV helper peptide (100 μg/mouse) and 3 or 4 HLA-B*0702-binding peptides (50 μg/peptide/mouse) emulsified in Complete Freund's Adjuvant (CFA). Mock group mice received the same immunization strategy but without any ZIKV-specific or ZIKV/DENV cross-reactive peptide. On the 21st day, mice were boosted with the same peptide mixtures emulsified in Incomplete Freund's Adjuvant (IFA). […] Three days post ZIKV infection mice were sacrificed, and serum and spleen were harvested. The splenocytes were used for ICS assay. After cardiac perfusion with PBS, brain was harvested. The levels of infectious ZIKV in serum and brain were measured using FFA.
Spleens were harvested from virus-infected, mock-immunized, or peptide-immunized mice. 1×10^6 splenocytes were plated in each well of 96-well U-bottom plates and stimulated with individual peptide (10 μg crude peptide or 1 μg pure peptide per well) for 6 hours. Five hours before the end of incubation, Brefeldin A (GolgiPlug; BD Biosciences) and PE-conjugated anti CD107a mAb (clone 1D4B, eBioscience) were added to the cells. Splenocytes stimulated with PMA-ionomycin were used as the positive control, while cells without any stimulation were the negative control. […] Samples were run using an LSR™ II (BD Biosciences) and analyzed using FLOWJO™ software X 10.0.7 (Tree Star, Ashland, Oreg.).
Peptide groups received corresponding peptide immunizations as described in Materials and Methods. […] CD3^+CD8^+CD44^+CD62L− T cells were gated and the percentages of IFNγ^+ and/or TNFα^+ cells in a representative mouse from mock (FIG. 12A) and peptide (FIG. 12B) groups were determined by ICS. The levels of infectious ZIKV in sera and brains were measured via FFA. Data were expressed as mean±SEM. *, P<0.05; **, P<0.01; ***, P<0.001. Two-tailed Mann-Whitney test.

[2] = system: CD3+CD8+ T cells; assay: IFNγ ICS, ZIKV-infected Ifnar-/- HLA-B*0702 transgenic mice; type: cell-based, mouse; conditions: for % IFNγ+ CD8+ T cells, FSS13025 / % IFNγ+ CD8+ T cells, MR766: HLA-B*0702 mice; for % IFNγ+ CD8+ T cells, FSS13025: 7 days after ZIKV FSS13025, ICS; for % IFNγ+ CD8+ T cells, MR766: 7 days after ZIKV MR766, ICS; for simultaneous IFNγ and TNFα production by peptide-stimulated CD8+ T cells: ZIKV MR766-infected mice

Sequence	percentage of epitope-specific cells among antigen experienced (CD44+CD62L-) CD8+ T cells [1]	% IFNγ+ CD8+ T cells, FSS13025 [2]	% IFNγ+ CD8+ T cells, MR766 [2]	simultaneous IFNγ and TNFα production by peptide-stimulated CD8+ T cells [2]
KPRWMDARV [FSS/MR-NS3574-582]	0.84±0.39%	(0.79%)	(1.9%)	stimulated simultaneous production of IFNγ and TNFα
RPALLVSFIF [FSS/MR-NS2A75-84]	3.27±1.91%	(0.53%)	(2.04%)	stimulated simultaneous production of IFNγ and TNFα

From patent US11806393B2, “Flavivirus peptide sequences, epitopes, and methods and uses thereof” (priority 2017, dated 2023)
